ChEMBL document CHEMBL5370525, “Antibiotics with novel mode of action as new weapons to fight antimicrobial resistance” (Eur J Med Chem, 2023)
≈ marks a conversion by molar mass, not a printed value. Values belong to the compound of their own block, whether it stands above or below them.

Tests used:
[1] = system: Clostridioides difficile; assay: Antibacterial activity against Clostridium difficile clinical isolates assessed as inhibition of bacterial growth; format: functional
[2] = system: Clostridioides difficile; assay: Antibacterial activity against Clostridium difficile clinical isolates assessed as inhibition of bacterial growth incubated for 44 hrs by CLSI-based broth microdilution assay; format: functional
[3] = system: Clostridioides difficile; assay: Antibacterial activity against Clostridium difficile clinical isolates assessed as inhibition of bacterial growth incubated for 48 hrs by CLSI-based assay; format: functional
[4] = system: Lactobacillus sp.; assay: Antibacterial activity against Lactobacillus sp. clinical isolates assessed as inhibition of bacterial growth incubated for 48 hrs by CLSI-based Serial 2-fold dilution; format: functional
[5] = system: Staphylococcus aureus; assay: Antibacterial activity against Meticillin-resistant Staphylococcus aureus clinical isolates assessed as inhibition of bacterial growth incubated for 44 hrs by CLSI-based broth microdilution assay; format: functional
[6] = system: Actinomyces sp.; assay: Antibacterial activity against Actinomyces sp. clinical isolates assessed as inhibition of bacterial growth incubated for 48 hrs by CLSI-based Serial 2-fold dilution; format: functional
[7] = system: Bifidobacterium sp.; assay: Antibacterial activity against Bifidobacterium sp. clinical isolates assessed as inhibition of bacterial growth incubated for 48 hrs by CLSI-based Serial 2-fold dilution; format: functional
[8] = Binding affinity to N-terminal His-tagged Full-length Clostridium difficile MetRS1 expressed in Escherichia coli assessed as inhibition constant by tRNA aminoacylation/ATP:PPi assay; design: species or system Clostridioides difficile
[9] = Binding affinity to N-terminal His-tagged Full-length Staphylococcus aureus MetRS1 expressed in Escherichia coli assessed as inhibition constant by tRNA aminoacylation/ATP:PPi assay
[10] = Binding affinity to N-terminal His-tagged Full-length Haemophilus influenzae MetRS2 expressed in Escherichia coli assessed as inhibition constant by tRNA aminoacylation/ATP:PPi assay
[11] = Binding affinity to N-terminal His-tagged Full-length human cytoplasmic MetRS2 expressed in Escherichia coli assessed as inhibition constant by tRNA aminoacylation/ATP:PPi assay; format: subcellular, Cytoplasm
[12] = system: Klebsiella pneumoniae; assay: Antibacterial activity against Klebsiella pneumoniae clinical isolates assessed as inhibition of bacterial growth incubated for 44 hrs by CLSI-based broth microdilution assay; format: functional
[13] = Binding affinity to N-terminal His-tagged Full-length Streptococcus pneumoniae MetRS1 expressed in Escherichia coli assessed as inhibition constant by tRNA aminoacylation/ATP:PPi assay
[14] = system: Escherichia coli; assay: Antibacterial activity against Escherichia coli clinical isolates assessed as inhibition of bacterial growth incubated for 44 hrs by CLSI-based broth microdilution assay; format: functional
[15] = Oral bioavailability in Beagle dog; format: ADME, organism-based, Canis lupus familiaris; details: in vivo
[16] = Oral bioavailability in Sprague-Dawley rat; format: ADME, organism-based; details: in vivo
[17] = system: Enterococcus faecium; assay: Antibacterial activity against Vancomycin-resistant Enterococcus faecium clinical isolates assessed as inhibition of bacterial growth incubated for 44 hrs by CLSI-based broth microdilution assay; format: functional
[18] = Binding affinity to N-terminal His-tagged Full-length Escherichia coli MetRS2 expressed in Escherichia coli assessed as inhibition constant by tRNA aminoacylation/ATP:PPi assay
[19] = Oral bioavailability in hamster; format: ADME, organism-based, Mesocricetus auratus; details: in vivo
[20] = system: Pseudomonas aeruginosa; assay: Antibacterial activity against Pseudomonas aeruginosa clinical isolates assessed as inhibition of bacterial growth incubated for 44 hrs by CLSI-based broth microdilution assay; format: functional
[21] = Binding affinity to N-terminal His-tagged Full-length human mitochondrial MetRS1 expressed in Escherichia coli assessed as inhibition constant by tRNA aminoacylation/ATP:PPi assay; format: mitochondria, Mitochondria
[22] = system: Acinetobacter baumannii; assay: Antibacterial activity against Acinetobacter baumannii clinical isolates assessed as inhibition of bacterial growth incubated for 44 hrs by CLSI-based broth microdilution assay; format: functional
[23] = Plasma protein binding in human at 0.2 to 10 ug/ml by equilibrium dialysis; format: ADME, cell-free; details: at 0.2 to 10 µg/mL, dose 0.2-10 µg/ml, read-out: PPB
[24] = AUC (0 to t) in mouse at 1 mg/kg, po incubated for 24 hrs by LC-MS-MS analysis; format: ADME, organism-based; design: dose 1 mg/kg, time 24 hrs, route po; details: in vivo
[25] = system: Staphylococcus aureus; assay: Antibacterial activity against Staphylococcus aureus smith infected CD-1 mouse assessed as survival rate at 1 mg/kg, po relative to control; format: functional
[26] = Cmax in mouse at 0.6 mg/kg, po incubated for 24 hrs by LC-MS-MS analysis; format: ADME, organism-based; design: dose 0.6 mg/kg, time 24 hrs, route po; details: in vivo
[27] = Plasma protein binding in mouse at 0.2 to 10 ug/ml by equilibrium dialysis; format: ADME, cell-free; details: at 0.2 to 10 µg/mL, dose 0.2-10 µg/ml, read-out: PPB
[28] = AUC (0 to t) in mouse at 0.3 mg/kg, po incubated for 24 hrs by LC-MS-MS analysis; format: ADME, organism-based; design: dose 0.3 mg/kg, time 24 hrs, route po; details: in vivo
[29] = Plasma protein binding in dog at 0.2 to 10 ug/ml by equilibrium dialysis; format: ADME, cell-free, Canis lupus familiaris; details: at 0.2 to 10 µg/mL, dose 0.2-10 µg/ml, read-out: PPB
[30] = Plasma protein binding in Sprague-Dawley rat at 0.2 to 10 ug/ml by equilibrium dialysis; format: ADME, cell-free; details: at 0.2 to 10 µg/mL, dose 0.2-10 µg/ml, read-out: PPB
[31] = system: Staphylococcus aureus; assay: Antibacterial activity against Staphylococcus aureus clinical isolate assessed as bacterial growth inhibtion by CLSI-based broth microdilution method; format: functional
[32] = Elimination half life in mouse at 0.3 to 1 mg/kg, po incubated for 24 hrs by LC-MS/MS analysis; format: ADME, organism-based; details: in vivo, dose 0.3-1 mg/kg, read-out: beta t1/2 (converted)
[33] = Cmax in mouse at 1 mg/kg, po incubated for 24 hrs by LC-MS-MS analysis; format: ADME, organism-based; design: time 24 hrs, dose 1 mg/kg, route po; details: in vivo
[34] = system: Staphylococcus aureus; assay: Post antibiotic effect against methicillin sensitive Staphylococcus aureus 29213 at 32 times of MIC incubated for 4 hrs by; format: functional
[35] = AUC (0 to t) in mouse at 0.6 mg/kg, po incubated for 24 hrs by LC-MS-MS analysis; format: ADME, organism-based; design: dose 0.6 mg/kg, time 24 hrs, route po; details: in vivo
[36] = Cmax in mouse at 0.3 mg/kg, po incubated for 24 hrs by LC-MS-MS analysis; format: ADME, organism-based; design: dose 0.3 mg/kg, time 24 hrs, route po; details: in vivo
[37] = system: Staphylococcus aureus; assay: Antibacterial activity against Staphylococcus aureus smith infected oral dosed CD-1 mouse; format: functional
[38] = system: Staphylococcus aureus; assay: Post antibiotic effect against methicillin sensitive Staphylococcus aureus 29213 at 128 times of MIC incubated for 4 hrs by; format: functional
[39] = Oral bioavailability in BALB/c mouse at 32 mg/kg by LC/MS-MS analysis; format: ADME, organism-based; details: in vivo
[40] = system: Staphylococcus aureus; assay: Antibacterial activity against Vancomycin-intermediate Staphylococcus aureus clinical isolate assessed as inhibition of bacterial growth by CLSI-based broth microdilution method; format: functional
[41] = system: Staphylococcus aureus; assay: Antibacterial activity against Vancomycin-resistant Staphylococcus aureus clinical isolate assessed as inhibition of bacterial growth by CLSI-based broth microdilution method; format: functional
[42] = system: Staphylococcus aureus; assay: Antibacterial activity against Meticillin-Resistant Staphylococcus aureus clinical isolate assessed as inhibition of bacterial growth by CLSI-based broth microdilution method; format: functional
[43] = system: Staphylococcus aureus; assay: Antibacterial activity against Linezolid non-susceptible Staphylococcus aureus clinical isolate assessed as inhibition of bacterial growth by CLSI-based broth microdilution method; format: functional
[44] = system: HeLa; assay: Cytotoxicity against human HeLa cells assessed as inhibition of cell growth by MTT assay; format: functional, cell-based
[45] = system: Staphylococcus aureus; assay: Antibacterial activity against Daptomycin non-susceptible Staphylococcus aureus clinical isolate assessed as inhibition of bacterial growth by CLSI-based broth microdilution method; format: functional
[46] = system: Staphylococcus aureus; assay: Antibacterial activity against methicillin-resistant Staphylococcus aureus ATCC 33591 infected in mouse assessed as log reduction in bacterial CFU in thigh 120 mg/kg, po measured after 24 hrs; format: functional
[47] = Volume of distribution at steady state in BALB/c mouse at 24 mg/kg, iv by LC/MS-MS analysis; format: ADME, organism-based; details: in vivo, read-out: Vdss
[48] = Cytotoxicity against MDCK cells assessed as inhibition of cell growth by MTT assay; format: toxicity, cell-based, Canis lupus familiaris; details: dog

MIC [1]: 0.15 µg/mL (≈ 0.142 µM)
Compound: CCc1c(Cl)c(O)c(Cl)c(O)c1C(=O)O[C@H]1[C@H](O)[C@H](OC)[C@H](OC/C2=C\C=C\C[C@H](O)/C(C)=C/[C@H](CC)[C@@H](O[C@@H]3OC(C)(C)[C@@H](OC(=O)C(C)C)[C@H](O)[C@@H]3O)/C(C)=C/C(C)=C/C[C@@H]([C@@H](C)O)OC2=O)O[C@@H]1C [FIDAXOMICIN]

Compound: CN[C@H](CC(C)C)C(=O)N[C@H]1C(=O)N[C@@H](CC(N)=O)C(=O)N[C@H]2C(=O)N[C@H]3C(=O)N[C@H](C(=O)N[C@H](C(=O)O)c4cc(O)cc(O)c4-c4cc3ccc4O)[C@H](O)c3ccc(c(Cl)c3)Oc3cc2cc(c3O[C@@H]2O[C@H](CO)[C@@H](O)[C@H](O)[C@H]2O[C@H]2C[C@](C)(N)[C@H](O)[C@H](C)O2)Oc2ccc(cc2Cl)[C@H]1O [VANCOMYCIN]
MIC [2]: 0.25 µg/mL (≈ 0.173 µM)
MIC50 [3]: 1 µg/mL (≈ 0.69 µM)
MIC [1]: 0.25 µg/mL (≈ 0.173 µM)

Compound: O=c1cc(NCCCN[C@@H]2CCOc3c(Br)cc(Br)cc32)[nH]c2ccsc12 [CRS-3123]
MIC [4]: > 32 µg/mL
MIC [5]: 0.015 µg/mL (≈ 0.0292 µM)
MIC [6]: > 32 µg/mL
MIC [7]: > 32 µg/mL
Ki [8]: 0.02 nM
Ki [9]: 0.017 nM
Ki [10]: 178 nM
Ki [11]: > 20000 nM
MIC [12]: > 32 µg/mL
MIC [2]: 0.5 µg/mL (≈ 0.974 µM)
Ki [13]: 0.08 nM
MIC [14]: > 32 µg/mL
bioavailability [15]: < 1%
bioavailability [16]: < 1%
MIC [17]: < 0.004 µg/mL
Ki [18]: 1900 nM
bioavailability [19]: 0.6%
MIC [20]: > 32 µg/mL
Ki [21]: 28 nM
MIC [22]: > 32 µg/mL

Compound: Cc1c(CN(C)C(=O)/C=C/c2cnc3c(c2)CCC(=O)N3COP(=O)(O)O)oc2ccccc12 [AFABICIN]
fraction unbound [23]: < 0.05
AUC(0-t) at 24 h [24]: 1030 ng·h/mL
survival at 1 mg/kg [25]: 100%
Cmax [26]: 196 ng/mL
fraction unbound [27]: < 0.05
AUC(0-t) at 24 h [28]: 367 ng·h/mL
fraction unbound [29]: < 0.05
fraction unbound [30]: < 0.05
MIC90 [31]: < 0.015 µg/mL
half-life [32]: 5 h
Cmax [33]: 304 ng/mL
PAE [34]: 0.1 h
AUC(0-t) at 24 h [35]: 196 ng·h/mL
Cmax [36]: 154 ng/mL
ED50 [37]: 0.15 mg/kg
PAE [38]: 1.1 h

Compound: CN1CCC(C(=O)NC(=O)c2c(F)ccc(OCc3nc4cc(C(F)(F)F)cnc4s3)c2F)CC1
bioavailability [39]: 1%
MIC [40]: 1 µg/mL (≈ 1.94 µM)
MIC [41]: 1 µg/mL (≈ 1.94 µM)
MIC [42]: 1 µg/mL (≈ 1.94 µM)
MIC [43]: 1 µg/mL (≈ 1.94 µM)
IC50 [44]: > 120 µg/mL
MIC [45]: 1 µg/mL (≈ 1.94 µM)
log(activity) [46]: 2
Vd [47]: 2.02 L/kg
IC50 [48]: > 120 µg/mL
